Entries after “also recorded” stand apart in the source; their conditions may differ.
Experiments:
[1] = system: leukemia cell lines; assay: Screening of hits and structural analogs for effects on proliferation of leukemia cell lines; format: cell-based, human; details: dose range tested; data not shown
[2] = system: MOLM13, MV411, THP1 and U937 cells; assay: Proliferation of cell lines by counting cells in a hemocytometer; format: cell-based, human; details: range of concentrations, 72 hours
Protocol: Effect of UR778Br on proliferation of cell lines: Proliferation of MOLM13, MV411, THP1 and U937 cells was measured by counting cells in a hemocytometer. Briefly, cells were seeded at 20,000 to 40,000 cells/well in triplicate wells of a 96 well plate and treated with a range of UR778Br doses and incubated at 37° C. with 5% CO2 in a humidified incubator. Cell counts were determined at 24-, 48- and 72 hours.

[3] = system: MOLM13, MV411, THP1 and U937; assay: Viability of cell lines by the MTS assay; format: cell-based, human; details: range of concentrations, 48 hours
Protocol: Effect of UR778Br on viability of cell lines: Viability of MOLM13, MV411, THIP1 and U937 was determined by the MTS assay. Briefly, 20,000 to 40,000 cells/well were seeded in triplicate wells of a 96 well plate and treated with a range of UR778Br doses and incubated for 48 to 72 hours at 37° C. with 5% CO2 in a humidified incubator. Cell Titre96R Aqueous One Solution Cell Proliferation Assay reagent (Promega Corp., catalog number: G3580) diluted 1-10 in complete RPMI medium was added and cells were incubated for 4 hours. The optical density (OD) values were read at 490 nm wavelength using BioRad iMark microplate reader. Experiments were performed in triplicates; data are expressed as the mean of the triplicate determinations (X±SD) of a representative experiment in % of absorbance by samples with untreated cells [=100%].

[4] = system: MOLM13, MV411, THP1 and U937 cells; assay: Cell cycle analysis by flow cytometry; format: cell-based, human; details: range of concentrations, 24 hours
Protocol: Cell cycle analysis: For cell cycle analysis, Leukemia cell lines were washed with 1× phosphate buffered saline (PBS Mediatech, Inc., Manassas, VA, USA) and centrifuged at 1200 rpm for 8 minutes. Cell pellet was re-suspended in 100 microliters of Cytofix/Cytoperm™ (BD Biosciences, Cat No. 554722) buffer for at room temperature (RT) for 15 minutes. Cell suspension washed with 1×PBS and centrifuged at 1200 rpm for 8 minutes and re-suspended in 1 ml of culture media containing 1 μl of Vybrant® DyeCycler™ Violet Stain (ThermoFisher Scientific, Cat No. V35003). Cell suspensions were incubated at 37° C. in a 5% CO2 incubator for least 30 minutes. Cell suspensions were analyzed using a LSRII™ flow cytometer (BD Biosciences, San Jose, CA, USA). A minimum of 8,000 cells were included in the analysis of each sample. Data were analyzed by FlowJo software (Tree Star, Ashland, OR, USA) and collected on linear scale for forward and side scatter (i.e., FSC and SSC, respectively) and on a linear scale for violet fluorescence channel […].

[5] = system: MOLM13, MV411, THP1 and U937 cells; assay: Apoptosis by Western blot of cleaved PARP; format: cell-based, human; details: 25 μM, 24 hours
Protocol: For measurement of apoptosis by Western blot the MOLM13, MV41, THP1 and U937 cells treated with UR778Br for 24 hours were lysed and expression of cleaved PARP, an indicator of apoptosis, was measured as described above.

[6] = system: IQGAP1; assay: IQGAP1 expression in MOLM13 cells (immunoblot); format: cell-based, human; details: 25 μM, 24 hours
[7] = system: MOLM13, MV411, THP1 and U937; assay: Colony formation of leukemia cell lines in MethoCult; format: cell-based, human; details: 6.25 μM
Protocol: Effect of UR778Br on colony formation cell lines: MOLM13, MV411, THP1 and U937 were added to MethoCult H4435 Enriched (Stem Cell Technologies, catalog number 04435) to achieve concentration of 2000 cells/ml, 500 cells/ml and 200 cells/ml. UR778br was added to achieve a range of concentrations. Each condition was done in triplicate. The plates were incubated at 37° C. with 5% CO2 in a humidified incubator Colonies were counted at 7, 14 and 21 days.

[8] = system: normal bone marrow cells; assay: Colony formation by normal bone marrow in MethoCult; format: cell-based, human
Protocol: Effect of UR778Br on colony formation by normal bone marrow: Vials of cryopreserved aliquots were thawed the in a 37° C. water bath. Nine ml of RPMI with 2% FBS were added dropwise to the cells in 1 ml of freezing media, centrifuged at 1000 rpm for 5 min and re-suspended in 5 ml of RPMI. The cells were counted in a hemocytometer and viability estimated by Trypan blue dye exclusion. The cells were added to MethoCult H4435 Enriched (Stem Cell Technologies, catalog number 04435) to achieve concentrations of 5×10^4 to 1×10^5 viable cells/ml. UR778Br was added at indicated concentrations. The mixture was vortexed and allowed to settle. Each condition was dispersed in triplicate or quadruplicate. The plates were incubated at 37° C. with 5% CO2 in a humidified incubator and colonies were counted at 7, 14 and 21 days. Images of colony forming unit assays were acquired using the Celligo imaging cytometer (Nexcelom Biosciences) at a resolution of 1 pixel/μm. Celligo instrument software was used for image processing.

[9] = system: primary human AML cells; assay: Viability of primary AML cells (annexin-V/DAPI flow cytometry); format: cell-based; details: dose range, 48 hours
Protocol: Effect of UR778Br on apoptosis in primary AML cells: Primary AML cells were treated with DMSO or varying concentrations of UR778Br and cytarabine 5 μM and cultured in a 37° C., 5% CO2 incubator for 24 and 48 hours. The cells were stained for 15 min in annexin-V binding buffer (10 mM HEPES/NaOH, pH 7.4, 140 mM NaCl, 2.5 mM CaCl2)) containing annexin-V-APC antibody (BD Biosciences) and DAPI (Sigma). Stained cells were analyzed immediately on using a LSRII™ flow cytometer (BD Biosciences, San Jose, CA, USA).
Effect of UR778Br on viability of primary human AML cells: Vials of primary AML cells cryopreserved in liquid nitrogen were thawed rapidly in a 37° C. water bath. The contents, generally one ml, were transferred to a 15 ml conical tube, one tenth the volume of DNase was added (bovine pancreas deoxyribonuclease, Sigma Aldrich D4263-5VL), it was mixed gently and incubated in a 37° C. water bath for 90 seconds. 9 ml of DMEM with 2% FBS was added dropwise and mixed gently. Samples were then centrifuged for 5 to 6 minutes, aspirated and the supernatant discarded. […] The cells were counted in a hemocytometer with viability estimated by Trypan blue dye exclusion.
Primary cells were cultured in 37° C., 5% CO2 incubator. […] Stained cells were analyzed immediately on BD FACS Celesta, flow cytometer (BD Biosciences). Viable cells were scored as annexin-V and DAPI double negative cells.

[10] = system: primary AML cells; assay: Clonogenicity of primary AML cells in MethoCult; format: cell-based, human
Protocol: Effect of UR778Br on clonogenicity of primary AML cells: Vials of primary AML cells cryopreserved in liquid nitrogen were thawed rapidly in a 37° C. water bath. The contents, generally one ml, were transferred to a 15 ml conical tube, one tenth the volume of DNase was added (bovine pancreas deoxyribonuclease, Sigma Aldrich D4263-5VL), it was mixed gently and incubated in a 37° C. water bath for 90 seconds. 9 ml of DMEM with 2% FBS was added dropwise and mixed gently. Samples were then centrifuged for 5 to 6 minutes, aspirated and the supernatant discarded. 70 μl of DNase were added and mixed gently. 10 ml of DMEM with 2% FBS was added slowly to resuspend and then the sample was centrifuged for 5 to 6 minutes. Supernatant was discarded, 50 μl of DNase was added, sample was mixed gently and the pellet was resuspended in 5 ml of IMDM+10% FBS, L-glutamine 2 mM (GIBCO) and penicillin and streptomycin (50 units and 50 mcg/ml). The cells were counted in a hemocytometer with viability estimated by Trypan blue dye exclusion.
The cell suspension was then added to MethoCult Enriched H4435 (Stem Cell Technologies, catalog number 04435) to achieve a final concentration between 5×10^4 to 2×10^5/ml. DMSO, UR778Br or cytarabine were added to achieve indicated concentrations. […] The plates were incubated 37° C., 5% CO2 incubator and colonies were counted at 7, 14 and 21 days. […]

CCCCN1C(=O)C(O)(CC(=O)c2ccccc2O)c2cc(Br)ccc21 (stereo not shown) [UR778Br]
inhibition of proliferation of leukemia cells (anti-proliferative activity) [1]: most potent structural analog of AK778
proliferation [2]: dose dependent reduction of proliferation
viability [3]: decreased viability in AML cell lines in a dose-dependent fashion; also recorded: dose-dependent decrease in viability
cell cycle arrest [4]: cell cycle arrest in the G2M phase in a dose-dependent manner; also recorded: dose-dependent arrest in G2/M phase of the cell cycle
apoptosis (expression of cleaved PARP) [5]: apoptosis in MOLM13 cells
apoptosis (expression of cleaved PARP) ([5]; listed as UR778B2): apoptosis in the four cell lines
expression of IQGAP1 [6]: decreased expression of IQGAP1
colony formation units [7]: suppress clonogenic progenitors; also recorded: inhibition of the colony formation units
colony formation by normal bone marrow ([8]; 6.25 μM): did not inhibit colony formation by normal bone marrow; also recorded: majority of normal bone marrow samples do not exhibit reduced colony formation
colony formation by normal primary bone marrow cells ([8]; 12.5 μM compared with 6.25 μM): inhibition of the colony formation units to a greater degree than at 6.25 μM concentration
viability (annexin-V and DAPI double negative cells) [9]: dose dependent decrease in viability
colony formation by three primary AML cells ([10]; concentrations as low as 6.25 μM): blocks colony formation
colony formation units of primary AML cells ([10]; varying concentrations): inhibition of the colony formation units
